Source: PMC5917093, “Brain Transport Profiles of Ginsenoside Rb1 by Glucose Transporter 1: In Vitro and in Vivo” (Frontiers in Pharmacology, 2018)
Where two headings read alike, the source gives them in different places.

How the values were obtained:
[1] = system: rBMEC (primary cultured rat brain microvascular endothelial cells); test: Uptake of Rb1 by primary cultured rBMEC (time course, temperature, concentration dependence, Michaelis-Menten kinetics); format: in vitro ADME
Method: Isolation and culture of rat brain microvessel endothelial cells were operated according to previous studies with some modifications ([Liu et al., 2013]). The isolated rBMEC was seeded in cultured flasks coated with 2% gelatin and cultured in culture medium. The culture medium consisted of DMEM/F12 supplemented with 20% FBS, 2 mM L-glutamine, heparin (50 mg/L), 100 IU/mL penicillin, 100 μg/mL streptomycin, and NaHCO3 (0.5 g/L). On the first day after seeding, the culture medium was replaced, after which the culture medium was replaced every 2 days. At 5–6 days, the rBMEC was transferred to 6-well plates coated with gelatin and cultured in an incubator with a saturated humidity at 37°C in 5% CO2 and 95% air. Transport studies were performed when cells reached 100% confluency. The endothelial phenotype of the rBMEC was identified by staining for the endothelial cell marker vWF using a confocal laser scanning microscope (Leica TCS SP8).
When rBMEC was grown to 100% confluency in gelatin-coated 6-well plates, uptake experiments were performed. Briefly, the cultured cell monolayer was washed three times with 1 mL of pH 7.4 Hanks’ balanced salt solution (HBSS). The cultured rBMEC was pre-incubated for 30 min in 1 mL HBSS at 37 or 4°C. After pre-incubation, the HBSS solution was removed by suction, and HBSS (1 mL) containing 60 μg/mL Rb1 was added to initiate uptake. Then the cells were incubated at 37 or 4°C at a set time (5, 10, 15, 30, 60, 120, and 240 min). After the end of the incubation, the incubation solution was aspirated and the monolayers were carefully washed three times with 1 mL ice-cold HBSS to terminate the uptake. Then, 0.5 mL ultrapure water was added to each incubated well, and the material in the wells was frozen (at -80°C)/thawed (at room temperature) repeatedly four times to lyse cells. After the solubilized, the monolayer supernatants were collected and 10 μL was injected into LC–MS/MS to determine Rb1 concentration. The protein contents of the cell monolayers were measured by the method of Bradford using BSA as the standard ([Bradford, 1976]). Uptake was expressed as the cell-to-medium ratio (μL/mg protein or μL/mg protein/min) and termed the volume of distribution (Vd), obtained by dividing the uptake amount by the concentration of substrate in the transport medium. Vd is derived from the ratio of ng/mg protein to ng/μL buffer.
The uptake data were fitted to the above equation by nonlinear least-squares regression analysis with Graphpad Prism 5.0 software.
(§1) HPLC–MS/MS was composed by a Shimadzu LC-20A chromatographic system and an API 4000 mass spectrometer equipped with electrospray ionization (ESI) source system. MS/MS detection was performed on an API 4000 mass spectrometer using multiple reaction monitoring (MRM) mode by monitoring the fragmentation of m/z 1107.6 → 179.0 for Rb1 and m/z 779.4 → 345.2 for digoxin (IS). Chromatographic separations were carried out on a Shim-pack XD-ODS column (2.0 mm × 30 mm, 2.2 μm) with a Shim-pack GVD-ODS (2.0 mm × 5 mm, 4.6 μm) guard column (Shimadzu, Japan) at a flow rate of 0.28 mL/min using 10 mM acetic acid in water (phase A) and methanol (phase B) as mobile phase. A linear step gradient elution was performed as followed: phase B was increased from 45 to 90% within the first 3 min, and decreased to 45% within the next 3 min (total gradient time: 6 min). A 10 μL sample was injected into the system with the auto-sample conditioned at 4°C and column temperature maintained at 40°C.
The biological samples (100 μL) were placed in a 1.5 mL Eppendorf tube, and mixed with 10 μL IS solution (500 ng/mL) for 3 min by vortexing. The mixture was extracted with methanol (0.9 mL) by vortexing, and then centrifuged at 14,000 rpm for 5 min. The supernatant (0.8 mL) was transferred to a new 1.5 mL Eppendorf tube and evaporated to dryness under vacuum. The dried residue was reconstituted with 100 μL methanol, vortex-mixed for 30 s, and centrifuged at 14,000 rpm for 5 min. […]

[2] = parameters: method as in Li et al., 2007; conditions: rats, TPNS injection 10.0 mg/kg intravenous; ref Li et al., 2007; cited from earlier work
[3] = Effect of phloretin on distribution of Rb1 in plasma and brain of normal rats; format: in vivo, rat; conditions: Rb1 10 mg/kg i.v.; for concentration at 0.5 h / concentration at 2 h / concentration at 6 h: rat
Method: Rats were randomly divided into two groups in 36 of each group. One group served as the control and another group were treated with phloretin. Dose of phloretin was set to be 5 mg/kg. Rb1 (10 mg/kg, i.v.) was administered to the experimental rats after i.v. administration of phloretin or saline for consecutive 1 week. Six rats from each group were selected and the blood samples were collected into heparinized Eppendorf tubes via the abdominal aorta at 0.5, 2, and 6 h after Rb1 administration. Then, brain samples were immediately collected. The plasma samples were obtained by centrifuging at 1000 × g for 10 min. Plasma and brain samples were frozen at -80°C until analysis.
as §1
The biological samples (100 μL) were placed in a 1.5 mL Eppendorf tube, and mixed with 10 μL IS solution (500 ng/mL) for 3 min by vortexing. The mixture was extracted with methanol (0.9 mL) by vortexing, and then centrifuged at 14,000 rpm for 5 min. The supernatant (0.8 mL) was transferred to a new 1.5 mL Eppendorf tube and evaporated to dryness under vacuum. The dried residue was reconstituted with 100 μL methanol, vortex-mixed for 30 s, and centrifuged at 14,000 rpm for 5 min. Finally, 10 μL of the supernatant liquid was immediately subjected to HPLC–MS/MS analysis. The system control and data analysis were performed by AB Sciex Analyst software (the software version: Analyst 1.5.1). Retention time for Rb1 was tR = 3.80 ± 0.01 min and for IS digoxin tR = 3.13 ± 0.01 min. The lowest limits of quantitation of Rb1 in cell lysate, plasma, and brain homogenate were 1, 2.5, and 1 ng/mL, respectively. The recoveries were higher than 90%; the relative standard deviations (SD) of intra-day and inter-day were lower than 10%.

[4] = 7.5-960 μg/mL Rb1, 37°C, 120 min, Michaelis-Menten fit

For `CC(C)=CCC[C@](C)(O[C@@H]1O[C@H](CO[C@@H]2O[C@H](CO)[C@@H](O)[C@H](O)[C@H]2O)[C@@H](O)[C@H](O)[C@H]1O)[C@H]1CC[C@]2(C)[C@@H]1[C@H](O)C[C@@H]1[C@@]3(C)CC[C@H](O[C@@H]4O[C@H](CO)[C@@H](O)[C@H](O)[C@H]4O[C@@H]4O[C@H](CO)[C@@H](O)[C@H](O)[C@H]4O)C(C)(C)[C@@H]3CC[C@]12C` [Rb1, Ginsenoside Rb1], the “intracellular amounts of Rb1 at 37°C relative to 4°C” value ([1]; 60 μg/mL Rb1) was “about two to threefold”, the “time at which steady-state uptake occurred” value ([1]; 60 μg/mL Rb1, 37°C) was 120 min and the Km [1, 4] was 119 ± 15.6 µM. For the same compound, the “Vmax of Rb1 uptake” value [1, 4] was 0.0034 ± 0.0003 nmol/(mg protein ⋅ min), the “nonsaturable component (Pdiff) of Rb1 transport” value ([1]; 37°C) was 0.0023 μL/(mg protein ⋅ min) and the “share of total Rb1 uptake accounted for by the saturable component” value ([1]; low concentration range) was 90%. For the same compound, the “duration in brain tissue” value [2] was about 24 h, the “largest content in brain tissue” value [2] was “about 1.4 μg/g” and the “Brain-to-plasma concentration ratio (Kp)” value ([3]; 0.5 h, phloretin-treated (5 mg/kg i.v., 1 week)) was 2.15 ± 0.19 μL/g brain. The “Brain-to-plasma concentration ratio (Kp)” value ([3]; 0.5 h, untreated normal rats) was 7.09 ± 1.01 μL/g brain, the “Brain-to-plasma concentration ratio (Kp)” value ([3]; 2 h, phloretin-treated (5 mg/kg i.v., 1 week)) was 2.56 ± 0.06 μL/g brain and the “Brain-to-plasma concentration ratio (Kp)” value ([3]; 2 h, untreated normal rats) was 4.9 ± 0.35 μL/g brain. For the same compound, the “Brain-to-plasma concentration ratio (Kp)” value ([3]; 6 h, phloretin-treated (5 mg/kg i.v., 1 week)) was 1.59 ± 0.005 μL/g brain, the “Brain-to-plasma concentration ratio (Kp)” value ([3]; 6 h, untreated normal rats) was 3.24 ± 0.53 μL/g brain and the concentration at 0.5 h ([3]; brain, intravenous, 0.5 h, phloretin-treated (5 mg/kg i.v., 1 week), read-out: Brain concentration) was 105 ± 15.1 ng/g. For the same compound, the concentration at 2 h ([3]; brain, intravenous, 2 h, phloretin-treated (5 mg/kg i.v., 1 week), read-out: Brain concentration) was 84.8 ± 4.1 ng/g, the concentration at 6 h ([3]; brain, intravenous, 6 h, phloretin-treated (5 mg/kg i.v., 1 week), read-out: Brain concentration) was 39.9 ± 4.9 ng/g and the concentration at 0.5 h ([3]; brain, iv, 0.5 h, untreated normal rats, read-out: Brain concentration) was 490 ± 58.3 ng/g. The concentration at 2 h ([3]; brain, iv, 2 h, untreated normal rats, read-out: Brain concentration) was 194 ± 11.1 ng/g, the concentration at 6 h ([3]; brain, iv, 6 h, untreated normal rats, read-out: Brain concentration) was 114 ± 24 ng/g and the concentration at 0.5 h ([3]; plasma, intravenous, 0.5 h, phloretin-treated (5 mg/kg i.v., 1 week), read-out: Plasma concentration) was 48700 ± 2900 ng/mL. It also gave a concentration at 2 h ([3]; plasma, intravenous, 2 h, phloretin-treated (5 mg/kg i.v., 1 week), read-out: Plasma concentration) of 33200 ± 1400 ng/mL, a concentration at 6 h ([3]; plasma, intravenous, 6 h, phloretin-treated (5 mg/kg i.v., 1 week), read-out: Plasma concentration) of 27000 ± 1500 ng/mL and a concentration at 0.5 h ([3]; plasma, iv, 0.5 h, untreated normal rats, read-out: Plasma concentration) of 69300 ± 4500 ng/mL. It also gave a concentration at 2 h ([3]; plasma, iv, 2 h, untreated normal rats, read-out: Plasma concentration) of 39700 ± 4100 ng/mL and a concentration at 6 h ([3]; plasma, iv, 6 h, untreated normal rats, read-out: Plasma concentration) of 35200 ± 3000 ng/mL.
